The values below come from patent US6127406A, “Discodermolide compounds and methods of use” (Harbor Branch Oceanographic Institution, Inc., priority 1999, dated 2000).

Experiment [1] deals with microtubule network of cells. Nature of the experiment: Microtubule bundling patterns in cells by immunofluorescence. In kind it is cell-based. Conditions: for Microtubule bundling: concentration not given. The method, then:
Discodermolide, discodermolide analogs and paclitaxel were evaluated as to their effects on the microtubule network of cells using FITC-labeled, anti-alpha-tubulin monoclonal antibodies.
On day 1, 2.5×10^5 adherent tumor cells were cultured in RPMI 1640 tissue culture medium supplemented with 10% fetal calf serum (TCM) overnight at 37° C. in 5% CO2 on 22 mm^2 coverslips in 6-well microtiter plates. […] On day 3, TCM was removed and cells attached to coverslips were fixed with a 3.7% formaldehyde solution in Dulbecco's PBS for 10 minutes at room temperature. Cells were permeabilized with a 2% Triton X-100 solution, 2 ml per well, for 5 minutes at room temperature and washed twice in Dulbecco's PBS prior to staining.
To each well containing cells attached to coverslips a 2 ml volume of mouse monoclonal anti-alpha-tubulin (Cat # T-5168, Sigma Immuno Chemicals) diluted 1:2400 was added and the cells incubated at 37° C. in 5% CO2 for 45 minutes. Coverslips were rinsed twice with Dulbecco's PBS. A 2 ml volume of goat-anti-mouse-IgG-FITC conjugate (Cat # T-5262, Sigma Immuno Chemicals) diluted at 1:2400 was added and the cells incubated at 37° C. in 5% CO2 for 45 minutes. Coverslips were rinsed once with sterile distilled water and mounted on slides and observed under the microscope using epifluorescence illumination for the presence of abnormal aster and microtubule bundle formation.

For experiment [2], the system named is purified bovine brain tubulin. Nature of the experiment: Tubulin polymerization (optical density at 350 nm). Conditions: for Polymerization?: 10 uM, 37 C.; for microtubule polymerizing activity compared to discodermolide: compared to the non-acetylated discodermolide. The class given is biochemical. The method, then: Polymerization of purified bovine brain tubulin (Cytoskeleton Inc., Denver, Colo.) was followed by changes in the optical density of tubulin solutions at 350 nm in a Hitachi U-3010 spectrophotometer equipped with a SPR-10 electronic thermostatted cell holder. Stock solutions of tubulin were diluted on ice in G-PEM buffer (1 mM GTP, 80 mM PIPES, 1 mM EGTA, 0.5 mM magnesium chloride; pH 6.8) to a final concentration of 1 mg/ml. The instrument was zeroed on this solution at 2° C. Discodermolide, its analogs, or paclitaxel were then added to the tubulin solution to a final concentration of 10 μM, quickly mixed, and the absorbance monitored at 37° C.

The test system of experiment [3] is P388 murine leukemia cell line. Nature of the experiment: Antiproliferative effect on P388 cells (MTT, 48-hr exposure). The class given is cell-based. Conditions: Mus musculus, read-out: P388 IC-50. On the procedure:
(§1) Discodermolide and discodermolide analogs were analyzed as to their effects on proliferation of A549 human adenocarcinoma and P388 murine leukemia cell lines. P388 cells were obtained from Dr. R. Camalier, National Cancer Institute, Bethesda, Md., and A549 cells were obtained from American Type Culture Collection, Rockville, Md. All cell lines were maintained in Roswell Park Memorial Institute (RPMI) medium 1640 supplemented with 10% Rehatuin™ fetal calf serum (Intergen Company, Purchase, N.Y.). All cell lines are cultured in plastic tissue culture flasks and kept in an incubator at 37° C. in humidified air containing 5% CO2. Prior to testing, antibiotic-free stock cultures of each of the cell lines were subcultured to 10^6 cells/ml by dilution in fresh growth medium at 2 to 3 day intervals.
(§2) To assess the antiproliferative effects of agents against the P388 cell line, 200 μl cultures (96-well tissue culture plates, Nunc, Denmark) are established at 1×10^5 cells/ml in drug-free medium or medium containing the test agent at 10.0, 1.0, 0.10 and 0.010 μg/ml. The solvent for all dilutions is ethanol. All experimental cultures are initiated in medium containing Gentamycin sulfate (50 μg/ml; Schering Corporation, Kenilworth, N.J.).
(§3) After 48-hr exposures, P388 cells are enumerated using 3-[4,5-Dimethylthiazol-2-yl]-2,5-diphenyltetrazolium bromide (MTT) (M. C. Alley, et al., Cancer Res. 48:589, 1988). Similar procedures are utilized for A549 cells which require an additional 48 hr exposure prior to MTT addition. Results are expressed as percent inhibition compared to the negative (no drug) control. Positive drug controls are included to monitor drug sensitivity of each of the cell lines. These include varying dilutions of 5-fluorouracil and adriamycin.
(§4) To quantitate the effects on cell proliferation and resulting IC50 values, 75 μl of warm growth media containing 5 mg/ml MTT is added to each well, cultures returned to the incubator, and left undisturbed for 90 minutes. To spectrophotometrically quantitate formation of reduced formazan, plates are centrifuged (900× g, 5 minutes), culture fluids removed by aspiration, and 200 μl of acidified isopropanol (2 ml concentrated HCl/liter isopropanol) added per well. The absorbance of the resulting solutions is measured at 570 nm with a plate reader (TECAN Spectra II PlateReader, TECAN U.S., Research Triangle Park, N.C.) and a 650 nm reference filter. The absorbance of tests wells is divided by the absorbance of drug-free wells, and the concentration of agent that results in 50% of the absorbance of untreated cultures (IC50) is determined by linear regression of logit-transformed data (D. J. Finney, Statistical Method in Biological Assay, third ed., pp.316-348, Charles Griffin Co., London, 1978). A linear relationship between tumor cell number and formazan production has been routinely observed over the range of cell densities observed in these experiments. Two standard drug controls are included in each assay as a check to monitor the drug sensitivity of each of the cell lines and IC50 values are determined for each drug-cell combination.

The test system of experiment [4] is A549 human adenocarcinoma cell line. Put plainly: Antiproliferative effect on A549 cells (MTT). The class given is cell-based. Conditions: additional 48 hr exposure, read-out: A549 IC-50. The method, then:
as §1
After 48-hr exposures, P388 cells are enumerated using 3-[4,5-Dimethylthiazol-2-yl]-2,5-diphenyltetrazolium bromide (MTT) (M. C. Alley, et al., Cancer Res. 48:589, 1988). […] Results are expressed as percent inhibition compared to the negative (no drug) control. Positive drug controls are included to monitor drug sensitivity of each of the cell lines. These include varying dilutions of 5-fluorouracil and adriamycin.
as §4

In experiment [5] the test system is A549 human adenocarcinoma and P388 murine leukemia cell lines. Put plainly: Antitumor effects of discodermolide analogs compared to discodermolide. The class given is cell-based. The following applies: compared to the non-acetylated discodermolide. The method, then:
as §1, §2, §3
To quantitate the effects on cell proliferation and resulting IC50 values, 75 μl of warm growth media containing 5 mg/ml MTT is added to each well, cultures returned to the incubator, and left undisturbed for 90 minutes. […]

Experiment [6] has as its system purified bovine brain tubulin. Put plainly: Tubulin polymerization (optical density at 350 nm). Conditions: 10 uM, 6 C.-37 C. The class given is biochemical.
For experiment [7], the system named is A549 human lung cells. Put plainly: Effect on cell cycle progression (G2/M block, propidium iodide flow cytometry). In kind it is cell-based. The following applies: 100 nM, 48 hr. For orientation: In flow cytometry, cells or beads pass a laser one at a time.
Procedure: A549 human lung cells were used as cell cycle targets to compare the effects of discodermolide, discodermolide analogs and paclitaxel on perturbation of the cell cycle. Cell cycle analyses were performed as follows: A549 cells were incubated at 37° C. in 10% CO2 in air in the presence or absence of varying concentrations of discodermolide, discodermolide analogs or paclitaxel (purchased from Molecular Probes, Eugene Oreg.) for 48 hr.
Cells were harvested, fixed in ethanol and stained with 0.5 mg/ml of P.I. together with 0.1 mg/ml of RNAse A. This procedure permeabilizes live cells and allows entry of P.I. to stain DNA (propidium iodide also stains double stranded RNA, so RNAse is included in the preparation to exclude this possibility). Stained preparations were analyzed on a Coulter EPICS ELITE with 488 nm excitation with the dead cells excluded by back gating of P.I. preparations without detergent on forward and side scatter histograms. Fluorescence measurements and resulting DNA histograms were collected from at least 5,000 P.I. stained cells at an emission wavelength of 690 nm. Raw histogram data was further analyzed using a cell cycle analysis program (Multicycle, Phoenix Flow Systems).

As for `C=CC=CC(C)C(OC(N)=O)C(C)C(O)C(C)CC(C)=CC(C)C(OC(C)=O)C(C)C=CC(CC1OC(=O)C(C)C(OC(C)=O)C1C)OC(C)=O` (stereo not drawn) [Analog 3, Discodermolide-3,7,11-triacetate], the “Microtubule Bundling?” value in experiment [1] (100 nM) is “No”. Besides, the Microtubule bundling entry in experiment [1] is recorded as “negative”. In addition, the “Polymerization?” value in experiment [2] is “No and inactive”. The IC50 in experiment [3] was 166 nM; in experiment [4], 554 nM.
`C=CC=CC(C)C(OC(N)=O)C(C)C(O)C(C)CC(C)=CC(C)C(O)C(C)C=CC(CC1OC(=O)C(C)C(OC(C)=O)C1C)OC(C)=O` (stereo not drawn) [Analog 4, Discodermolide-3,7-diacetate]: the “Microtubule Bundling?” value is “Yes” in experiment [1] (10 nM); “Yes and induced similar microtubule bundle formation” in experiment [1] (100 nM). The “Polymerization?” value in experiment [2] is “Yes and able to induce tubulin polymerization”. Besides, the “microtubule polymerizing activity compared to discodermolide” value in experiment [2] is on record as “improved”. Moreover, the IC50 in experiment [3] was found to be 0.7 nM; in experiment [4], 3.7 nM. In addition, the “antitumor activity compared to discodermolide” value in experiment [5] was “improved”.
Turning to `CC(=O)O[C@H]1C(=O)[C@@]2(C)[C@H]([C@H](OC(=O)c3ccccc3)[C@]3(O)C[C@H](OC(=O)[C@H](O)[C@@H](NC(=O)c4ccccc4)c4ccccc4)C(C)=C1C3(C)C)[C@]1(OC(C)=O)CO[C@@H]1C[C@@H]2O` [Paclitaxel, reference compound], the “Microtubule Bundling?” value in experiment [1] (100 nM) was “Yes”; in experiment [1] (100 nM, listed as paclitaxel), “induced the formation of microtubule bundles”. Also, the Microtubule bundling result in experiment [1] is “routinely exhibit abnormal formation of multiple centriolar-radiating microtubules with extensive clusters of associated microtubular "bundles"”. The “Polymerization?” value is reported as “Yes” in experiment [2] and “induced the polymerization of purified tubulin” in experiment [2] (listed as paclitaxel). The IC50 in experiment [4] is 7.7 nM.
For `C=CC=CC(C)C(OC(N)=O)C(C)C(O)C(C)CC(C)=CC(C)C(O)C(C)C=CC(CC1OC(=O)C(C)C(O)C1C)OC(C)=O` (stereo not drawn) [Analog 8, Discodermolide-7-acetate], the “Polymerization?” value in experiment [6] is “Yes”; in experiment [2], “able to induce tubulin polymerization”. In addition, the “Microtubule Bundling?” value in experiment [1] (100 nM) is “Yes and induced similar microtubule bundle formation”; in experiment [1] (1000 nM), “Yes”. The “microtubule polymerizing activity compared to discodermolide” value in experiment [2] is recorded as “improved”. The IC50 in experiment [3] came out at 4 nM; in experiment [4] it was 0.8 nM. The “antitumor activity compared to discodermolide” value in experiment [5] is on record as “improved”.
For `C=CC=CC(C)C(OC(N)=O)C(C)C(OC(C)=O)C(C)CC(C)=CC(C)C(OC(C)=O)C(C)C=CC(CC1OC(=O)C(C)C(OC(C)=O)C1C)OC(C)=O` (stereo not drawn) [Analog 1, Discodermolide-3,7,11,17-tetraacetate], the “Microtubule Bundling?” value in experiment [1] (100 nM) is reported as “No”. Also, the Microtubule bundling entry in experiment [1] is “negative”. For the same molecule, the “Polymerization?” value in experiment [2] is “No and inactive”. For the same molecule, the results for the IC50 in experiment [3] and in experiment [4] were 837 nM and 1310 nM, respectively.
Take `C=CC=CC(C)C(OC(N)=O)C(C)C(OC(C)=O)C(C)CC(C)=CC(C)C(O)C(C)C=CC(CC1OC(=O)C(C)C(OC(C)=O)C1C)OC(C)=O` (stereo not drawn) [Analog 2, Discodermolide-3,7,17-triacetate]: the “Microtubule Bundling?” value in experiment [1] (100 nM) and in experiment [1] (1000 nM) was “No” in each case. The Microtubule bundling entry in experiment [1] was “negative”. In addition, the “Polymerization?” value in experiment [2] is “No and inactive”. Moreover, the IC50 in experiment [3] is above 6820 nM; in experiment [4] it was above 1310 nM.
Take `C=C/C=C\[C@H](C)[C@H](OC(N)=O)[C@@H](C)[C@H](O)[C@@H](C)C/C(C)=C\[C@H](C)[C@@H](O)[C@@H](C)/C=C\[C@@H](O)C[C@@H]1OC(=O)[C@H](C)[C@@H](O)[C@H]1C` [Discodermolide 9, (+)discodermolide, reference compound]: in experiment [7], the “G2/M Block” value was “induced cell cycle, G2 /M block”. Also, the “Microtubule Bundling?” value in experiment [1] (10 nM) is “Yes”; in experiment [1] (100 nM) it was “Yes”; in experiment [1] (100 nM, listed as Discodermolide9), “induced the formation of microtubule bundles”. Moreover, the Microtubule bundling result in experiment [1] is reported as “routinely exhibit abnormal formation of multiple centriolar-radiating microtubules with extensive clusters of associated microtubular "bundles"”. Also, the “Polymerization?” value was “Yes” in experiment [2] and “induced the polymerization of purified tubulin” in experiment [2] (listed as discodermolide 9). For the same molecule, the IC50 in experiment [3] came out at 35 nM; in experiment [4], 34 nM.
For the molecule `C=CC=CC(C)C(OC(N)=O)C(C)C(O)C(C)CC(C)=CC(C)C(O)C(C)C=CC(O)CC1OC(=O)C(C)C(OC(C)=O)C1C` (stereo not drawn) [Analog 7, Discodermolide-3-acetate], the “Microtubule Bundling?” value in experiment [1] (10 nM) is “Yes”; in experiment [1] (100 nM), “Yes and induced similar microtubule bundle formation”. In addition, in experiment [2], the “Polymerization?” value was “Yes and able to induce tubulin polymerization”. In addition, the “microtubule polymerizing activity compared to discodermolide” value in experiment [2] is listed as “improved”. In addition, the IC50 is 9 nM in experiment [3] and 9.4 nM in experiment [4]. Also, in experiment [5], the “antitumor activity compared to discodermolide” value is recorded as “improved”.
`C=CC=CC(C)C(OC(N)=O)C(C)C(OC(C)=O)C(C)CC(C)=CC(C)C(O)C(C)C=CC(O)CC1OC(=O)C(C)C(OC(C)=O)C1C` (stereo not drawn) [Analog 6, Discodermolide-3,17-diacetate]: the “Microtubule Bundling?” value in experiment [1] (100 nM) is “No”; in experiment [1] (1000 nM), “Yes and induced microtubule bundles only at 1000 nM”. Further, the “Polymerization?” value in experiment [2] is “No and inactive”. Further, the values for the IC50 in experiment [3] and in experiment [4] were 1150 nM and 736 nM, respectively.
As for `C=CC=CC(C)C(OC(N)=O)C(C)C(O)C(C)CC(C)=CC(C)C(OC(C)=O)C(C)C=CC(O)CC1OC(=O)C(C)C(OC(C)=O)C1C` (stereo not drawn) [Analog 5, Discodermolide-3,11-diacetate], in experiment [1] (100 nM), the “Microtubule Bundling?” value is “No”. For the same molecule, in experiment [1], the Microtubule bundling entry is recorded as “negative”. The “Polymerization?” value in experiment [2] was “No and inactive”. The IC50 in experiment [3] worked out at 103 nM; in experiment [4], 295 nM.
